The values below come from EPA's ToxValDB 9.5 (doi:10.2903/j.efsa.2011.2018).

Molecules are shown by their SMILES. ≈ marks a conversion by molar mass, not a printed value. Some results are limits rather than exact numbers.

The subject of one data set is Aphidius rhopalosiphi. The data set can be described thus: LR50; higher = less toxic. Particulars: not reported; mortality.
A further data set has as its system Tagia sp. Particulars: acute; duration: 14 days; mortality.
Another data set relates to Folsomia candida. Particulars: chronic/long-term; duration: 28 days; mortality.
A further data set concerns Anas platyrhynchos. Particulars: short-term; oral; feed; mortality.
Another data set deals with Apis mellifera. The following applies: acute; duration: 48 hours; dermal; mortality.
The test system of the next data set is Lepomis macrochirus. The following applies: acute; duration: 96 hours; mortality.

In the case of `[O-][n+]1nc(-n2ccnc2)nc2ccc(Cl)cc21` [Triazoxide], the LR50 in the data set with Aphidius rhopalosiphi is over 5.13 g/ha. In addition, the LC50 with Tagia sp. is over 1000 mg/kg; in the data set on Anas platyrhynchos, 268 mg/kg-day; with Lepomis macrochirus, 0.077 mg/L (≈ 0.311 µM). The NOEC in the data set on Folsomia candida stood at 500 mg/kg; with Coturnix japonica (reproduction developmental, duration: 6 weeks), 11.7 mg/kg-day. Moreover, the LD50 with Rattus norvegicus (acute, oral, mortality) was 14 mg/kg-day; in the data set with Coturnix japonica (acute, oral, mortality), 90 mg/kg-day; in the data set with Apis mellifera, over 200 µg/piece. In the data set with Rattus norvegicus (chronic, duration: 2 years, gross pathology), this molecule displayed an LOAEL of 0.05 mg/kg-day. Besides, the NOEL in the data set with Rattus norvegicus (reproduction developmental, no effects) was determined as 2.04 mg/kg-day. The NOAEL stood at 1.5 mg/kg-day in the data set on Rattus norvegicus (short-term, duration: 28 days) and 0.21 mg/kg-day with Rattus norvegicus (subchronic, duration: 90 days, oral, hematological).

As usually defined, the LOAEL is the lowest tested level that showed an adverse finding. The term NOAEL denotes the highest dose or exposure tested at which no adverse effect was seen.
